Results: US9220746B2, “Compounds and methods for treating bone disorders and controlling weight” (The University of North Carolina at Chapel Hill, priority 2009, dated 2015)
Where no end group is shown, it is not given here.

Key:
Igfbp2−/− COBs and BMSCs = assay: In vitro osteoblastogenesis of calvarial osteoblasts and bone marrow stromal cells (ALP, Alizarin Red staining); format: cell-based, mouse; conditions: 2 μg/ml, osteogenic media
Procedure: FIG. 1. The heparin-binding domain of IGFBP2 enhances osteoblastogenesis in vitro. a. Von Kossa staining was performed using tibia from 8 weeks old Igfbp2^+/+ and Igfbp2^−/− male mouse. b. Calvarial osteoblasts (COBs) were harvested from day 7 old male Igfbp2^+/+ and Igfbp2^−/− male mouse, and treated with osteogenic media in the presence of 2.5% FCS. At day 7, alkaline phosphatase (ALP) staining was performed. c and d. COBs and Bone marrow stromal cells (BMSCs) from Igfbp2^−/− mouse were treated with osteogenic media with pegylated heparin-binding domain peptide (PEG-HBD) in the presence of 10% FCS. ALP staining (day 7) and Alizarin Red staining (day 14) were performed (c). RNA was isolated at day 14 from BMSCs and expression of ALP, osteocalcin (OC) and Runx2 was analyzed by real-time PCR. Figures shown represent at least 3 independent experiments (n=3). Statistical difference was analyzed by student's t test. *; p<0.05.
FIG. 7. […] Igfbp2^−/− calvarial osteoblasts (COBs) were cultured with osteogenic media with PBS, control peptide (2 μg/ml) or heparin binding domain peptide (HBD-peptide) (2 μg/ml). Osteoblastogenesis was evaluated by Alizarin Red staining.
Neonatal calvarial osteoblasts were collected from 7-10 day old mice as previously described^53. Briefly, calvariae were digested 5 times with collagenase P and Trypsin. Cells released from digests 2 through 5 were collected as primary calvarial osteoblasts, and maintained in DMEM supplemented with 10% FCS and non-essential amino acids. Osteoblastogenesis of primary calvarial osteoblasts was carried out by treating cells with 4 mM β-glycerophosphate and 50 μg/ml ascorbic acid in αMEM. Bone marrow stromal cells (BMSCs) were harvested from femurs and tibias of 8 weeks old mice as described previously^10. Osteoblastogenesis of BMSCs was induced by the treatment with osteogenic media consisting of αMEM containing 10% FCS, 8 mM β-glycerophosphate, and 50 μg/ml ascorbic acid.

metacarpals = assay: Metacarpal culture ex vivo (calcein incorporated area, length, width); format: cell-based, mouse; conditions: 10 days, IGFBP2 200 ng/ml, peptides 2 μg/ml, vs PBS; for calcein incorporated area of metacarpals: IGF-1 20 ng/ml
Procedure: FIG. 2. The heparin binding domain of IGFBP2 enhances periosteal expansion of metacarpals ex vivo. Metacarpals were collected from day 1 male mouse, and treated with osteogenic media with IGFBP2 (200 ng/ml) or the heparin-binding domain peptide (HBD-peptide) (2 μg/ml) in the presence or absence of IGF-1 (20 ng/ml) for 10 days. Bones were labeled with calcein (500 ng/ml) and calcein incorporated area was visualized (a) and longitudinal length of calcein incorporated area was quantified (b). Alcian blue and Von Kossa double staining was performed (c) and length and width of metacarpals were quantified (d). Statistical difference was analyzed by ANOVA followed by Bonferroni post-hoc test. Figures shown represent at least 3 independent experiments. Values are expressed as the mean±SEM (n=3-4). ^a; <0.05 vs PBS, ^b; <0.01 vs PBS, ^c; <0.001 vs PBS, ^d; <0.01 vs HBD, ^e; <0.05 vs IGF-I, ^f; <0.05 vs HBD.
Metacarpals were isolated from Igfbp2^−/− mice at 1-day old and incubated in DMEM containing 0.5% BSA, 50 μg/ml ascorbic acid and 1 mM β-glycerol phosphate for 10 days^54. Stimulants were added to culture media from day 1. At day 10, metacarpals were incubated in media containing calcein (500 ng/ml) for 2 hours for staining of calcium deposition, and images were obtained. Then, bones were fixed with 4% PFA, embedded in paraffin, and processed for Alcian blue and von Kossa double staining.

adherent macrophages = assay: Osteoclast differentiation, tartrate resistant acid phosphatase staining; format: cell-based, mouse; conditions: osteoclast differentiation
Description: The method for osteoclast differentiation is as follows: Balb/c mice in which the IGFBP-2 gene had been deleted (see V. DeMambro et al, Endocrinology, 149(5): 2051-2061 (2007)) were anesthetized and sacrificed using cervical dislocation. The femurs from each mouse were dissected free of soft tissue and the bone marrow aspirated by needle puncture. Cells were removed sterile and resuspended in DMEM with 10% fetal calf serum. The cells were centrifuged at 700×g and the cell pellet resuspended in medium and plated in 24 well plates at a concentration of 5000 cells/cm^2. The plates that are used are low adherence plates that have no additives to facilitate cell adherence. Under these conditions macrophages will adhere while other cells will not. The media is supplemented with mCSF 20 ng/ml. After 3 days the cells are removed from the plate and the adherent macrophages are exposed to fresh media containing 10% FBS and mCSF. This is repeated again after 3 days and then after an additional 3 days cells are trypsinized and replated in fresh plates at 6×10^4 cells/cm. At this time RANK ligand, 50 ng/ml, is added, although in some experiments concentrations as low as 10 ng/ml were utilized. Medium is changed at 3 and 6 days and on day 7 cells are stained for tartrate resistant acid phosphatase, a marker of osteoclast differentiation. IGFBP-2 was added at concentrations between 50 ng/ml and 500 mcg/ml. The peptide was added at 20 or 200 ng/ml.
For tartrate resistant acid phosphatase staining, a 1% solution is prepared and incubated with the cells for 30 min at room temperature. Cultures are then washed and cell number determined by manual counting.

[1] = system: cells derived from bone marrow aspirates or calvaria; assay: Osteoblast differentiation, alkaline phosphatase and von kossa stain; format: cell-based, mouse
Procedure: For measurement of osteoblast differentiation, the cells are also derived from the same bone marrow aspirates. However in some experiments they were derived from calvaria obtained from newborn animals. Cells are plated in 6 well plates at […] in alpha MEM with 10% fetal bovine serum. Media was changed on day 1 and 3. At day 3 the cells received differentiation medium, which is alphaMEM containing 10% fetal calf serum, 8 mM glycerol phosphate and 50 ug/ml ascorbic acid. Media subsequently is changed every 2 days until termination of the experiment, generally at 18 days. In some experiments fetal calf serum concentration was lowered to either 5% or 2%. IGFBP-2 200 ng/ml was added to some cultures or the IGFBP-2 peptide at concentrations between 2 ng/ml and 2 mcg/ml. To determine osteoblast differentiation, the cells were fixed with 4% paraformaldehyde and then stained for alkaline phosphatase. The cells were then counterstained with von kossa stain to detect mineralization.

IGFBP-2−/− mice = assay: In vivo rescue of the bone phenotype in IGFBP-2−/− mice (micro CT); design: species or system mouse
Procedure: IGFBP-2−/− mice have reduced bone mineral density, reduced cortical and trabecular thickness and reduced bone turnover, both formation and resorption. To determine if the 13 amino acid peptide was active systemically, a pegylated preparation was prepared in order to extend halflife. This preparation was then injected into the mice. Mice between the ages of 16 and 20 weeks were utilized. These mice are known to have a major bone phenotype. The peptide was injected at a dose of 50 mcg of peptide plus conjugate, that is the total molecular weight of PEG plus the peptide, which is approximately 23,000 molecular weight was injected intraperitoneally five days per week for three weeks. Six mice were injected in each group. The major measure of bone density is the bone volume over total volume as calculated by micro CT analysis. This measures the amount of total bone within a given space. Control animals receive PBS injections.

β-catenin = assay: Western blot analysis of β-catenin (cytosolic accumulation, pSer552); format: cell-based, mouse
Procedure: FIG. 6. The heparin-binding domain of IGFBP-2 stimulates cytosolic accumulation and Ser552 phosphorylation of β-catenin by IGF-I. a, MC3T3-E1 cells were serum-starved over-night and treated with IGF-I at the indicated concentration for 6 hours. Expression of β-catenin and α-actin was analyzed by Western blot analysis with membrane and cytosolic fraction. b, Igfbp2^−/− calvarial osteoblasts (COBs) were serum-starved over-night with PBS or pegylated heparin-binding domain peptide (PEG-HBD) and then treated with IGF-I (100 ng/ml) for 6 hours. Expression of β-catenin was analyzed by Western blot analysis with cytosolic fraction and quantified by normalizing to α-actin (n=3). c, MC3T3-E1 cells were serum-starved over-night and treated with IGF-I (100 ng/ml) for 15 min. Expression of pSer552-β-catenin, β-catenin, pSer473-Akt, Akt and α-actin was analyzed by Western blot analysis with whole cell lysates. d, Igfbp2^−/− COBs were serum-starved over-night with PBS or PEG-HBD and then treated with IGF-I (100 ng/ml) for 15 min. Expression of pSer552-β-catenin was analyzed by Western blot analysis with whole cell lysates and quantified by normalizing to β-catenin (n=3). Figures shown represent at least 3 independent experiments. Values are expressed as the mean±SEM. Statistical difference was analyzed by Student's t-test. *; <0.001, **; <0.01, ^†; <0.05. […]

PTEN = assay: Western blot analysis of PTEN expression; format: cell-based, mouse; conditions: primary calvarial osteoblasts, overnight treatment
Procedure: FIG. 5. The heparin-binding domain of IGFBP2 suppresses PTEN expression. a and b, Igfbp2^−/− calvarial osteoblasts (COBs) were isolated, and treated with PBS, IGFBP-2 or pegylated heparin-binding domain peptide (PEG-HBD) in MEMα containing 0.1% BSA overnight. Whole cell lysate was collected and expression of PTEN and α-actin was analyzed by Western blot analysis. Expression levels of PTEN were quantified by normalizing to the expression levels of α-actin. c and d. COBs pre-incubated with PBS, IGFBP-2 or PEG-HBD overnight were treated with IGF-I (100 ng/ml) for 15 minutes. Whole cell lysate was collected and expression of pSer473-Akt and Akt was analyzed by Western blot analysis. Expression levels of pSer473-Akt were quantified by normalizing to the expression levels of Akt. Figures shown represent at least 3 independent experiments. Values are expressed as the mean±SEM (n=3-4). Statistical difference was analyzed by Student's t-test. *; <0.001, **; <0.01, ^†; <0.05.
FIG. 9. […] Igfbp2^+/+ calvarial osteoblasts were treated with PBS, control peptide, or heparin-binding domain peptide (HBD-peptide) overnight, and whole cell lysate was collected. PTEN expression was analyzed using western blot analysis (a), and quantitative analysis was performed (b). Values were expressed as the mean±SEM (n=3). Statistical significance was analyzed by ANOVA followed by Bonferroni post-hoc test. ^a; p<0.01 vs. PBS, ^b; p<0.01 vs. control peptide.
To prepare whole cell lysates, cells were solubilized in RIPA buffer^55. For cytosolic fraction, cells were solubilized with hypotonic buffer containing protease and phosphatase inhibitors (10 mM Tris, 0.2 mM MgCl2, pH 7.4) and kept on ice for 10 min. Cell lysates were mixed with sucrose buffer (final concentration; 25 mM Sucrose, 0.1 mM EDTA) and centrifuged at 20,000×g for 1 hour. Supernatant was used as cytosolic fraction. To prepare the membrane fraction, cells were solubilized with PBS containing protease and phosphatase inhibitors. The lysates were frozen at −80° C. for 1 h and thawed at room temperature. After three cycles, they were centrifuged at 13,000×g for 25 min. The pellet was suspended with membrane protein isolation buffer (20 mM Tris-HCl; 150 mM NaCl; 1 mM EDTA; 1 mM EGTA; and 1% Triton X-100, pH 7.5) containing protease and phosphatase inhibitors. Protein concentration was assessed by BCA protein assay kit (Thermo Scientific) and equal amounts of sample were separated by SDS-PAGE and transferred electrophoretically to nitrocellulose membranes. Membranes were blocked in 5% BSA in Tris-buffered saline. […]

[2] = 50 mcg i.p. five days per week for three weeks

For “RKGFYKRKQCKPSRGKRK (IGFBP-5 heparin binding domain-containing peptide sequence) [HBD-BP5, reference compound]”, the “mineralization of Igfbp2−/− COBs (Alizarin Red) compared to PBS” value (Igfbp2−/− COBs and BMSCs) was “did not show any enhancement of mineralization”, the “calcein incorporated area of metacarpals” value (metacarpals) was “did not have any effect” and the “width (and length) of metacarpals” value (metacarpals) was “did not have any effect”.
In the case of “pegylated 13 amino acid peptide: peptide of SEQ ID NO: 1 N-terminally pegylated with methoxyPEG propinaldehyde molecular weight 20 kDa, 1 PEG per peptide ({methoxyPEG 20 kDa}-KHHLGLEEPKKLR)”, the “biologic activity compared to the nonpegylated peptide” value (adherent macrophages) is reported as “equal biologic activity”, the “biologic activity compared to the nonpegylated peptide” value [1] is reported as “equal biologic activity” and the “PTEN in bones (biochemical analysis)” value (IGFBP-2−/− mice; [2]) is reported as “downregulated”. For the same substance, the cortical thickness (IGFBP-2−/− mice; [2]) was “substantially increased”, the “rescue of bone phenotype relative to normal” value (IGFBP-2−/− mice; [2]) was no more than 70% and the “BV/TV (bone volume over total volume)” value (IGFBP-2−/− mice; 50 mcg peptide plus conjugate i.p. five days per week for three weeks, normal 0.22, gene deletion 0.12) was 0.18.
IGF-I: insulin-like growth factor-I was tested, and the “calcein incorporated area of metacarpals” value (metacarpals) was “stimulated expansion of calcein incorporated area”, the “Ser552 phosphorylation of β-catenin” value (β-catenin; IGF-I 100 ng/ml 15 min, MC3T3-E1 cells (IGF-I alone) or Igfbp2−/− COBs pre-treated with PEG-HBD) was “stimulated β-catenin phosphorylation on Ser552” and the “cytosolic accumulation of β-catenin” value (β-catenin; IGF-I 6 hours, MC3T3-E1 cells (IGF-I alone) or Igfbp2−/− COBs pre-treated with PEG-HBD vs PBS) was “enhanced cytosolic accumulation of β-catenin”.
In the case of “AALSLEEPAALAP (Synthetic control peptide) [control peptide for HBD-peptide, reference compound]”, the “mineralization of Igfbp2−/− COBs (Alizarin Red) compared to PBS” value (Igfbp2−/− COBs and BMSCs) is reported as “did not enhance mineralization”, the “calcein incorporated area of metacarpals” value (metacarpals) is reported as “no effect” and the “width (and length) of metacarpals” value (metacarpals) is reported as “comparable to the metacarpals treated with PBS”. For the same substance, the PTEN expression (PTEN) was “no effect on PTEN expression”.
